Measurements from BigSolDB 2.1.

COc1cc(Cl)nc(N)n1
solubility (mole fraction)
Conditions | in ethyl acetate | in ethylbenzene | in isopropanol | in methanol | in n-propanol | in toluene
273.15 K | – | 0.000515 | 0.00113 | 0.00126 | 0.00122 | 0.000694
278.15 K | 0.00687 | 0.000689 | 0.00149 | 0.00159 | 0.00158 | 0.000889
283.15 K | 0.00856 | 0.000887 | 0.0019 | 0.00199 | 0.00201 | 0.00115
288.15 K | 0.0105 | 0.00115 | 0.00241 | 0.00246 | 0.00256 | 0.00148
293.15 K | 0.0129 | 0.0015 | 0.00302 | 0.0031 | 0.00323 | 0.0019
298.15 K | 0.0155 | 0.00184 | 0.00377 | 0.00375 | 0.00407 | 0.00241
303.15 K | 0.0188 | 0.00238 | 0.0046 | 0.00463 | 0.00502 | 0.003
308.15 K | 0.023 | 0.00299 | 0.00574 | 0.00555 | 0.00618 | 0.00374
313.15 K | 0.0276 | 0.00367 | 0.00701 | 0.00675 | 0.0075 | 0.00463
318.15 K | 0.033 | 0.00462 | 0.00857 | 0.00809 | 0.00916 | 0.00573
323.15 K | 0.0389 | 0.00567 | 0.0105 | 0.00962 | 0.0113 | 0.00703
